# Laboratory results from patent US20090317373A1, “Inhibition of the Anti-FVIII Immune Response” (Institut National De La Sante Et De La Recherche Medicale, priority 2005, published 2009).
# T1: binding of CTLD(4-7)-Fc to FVIII-BDD (UniProt P00451+Q61830, DEL763-1656)
# T1 construct: CTLD(4-7)-Fc a gift of Dr L. Martinez-Pomares
# T1 sequence (P00451 with tags, fused parts or gaps DEL763-1656 limits assumed): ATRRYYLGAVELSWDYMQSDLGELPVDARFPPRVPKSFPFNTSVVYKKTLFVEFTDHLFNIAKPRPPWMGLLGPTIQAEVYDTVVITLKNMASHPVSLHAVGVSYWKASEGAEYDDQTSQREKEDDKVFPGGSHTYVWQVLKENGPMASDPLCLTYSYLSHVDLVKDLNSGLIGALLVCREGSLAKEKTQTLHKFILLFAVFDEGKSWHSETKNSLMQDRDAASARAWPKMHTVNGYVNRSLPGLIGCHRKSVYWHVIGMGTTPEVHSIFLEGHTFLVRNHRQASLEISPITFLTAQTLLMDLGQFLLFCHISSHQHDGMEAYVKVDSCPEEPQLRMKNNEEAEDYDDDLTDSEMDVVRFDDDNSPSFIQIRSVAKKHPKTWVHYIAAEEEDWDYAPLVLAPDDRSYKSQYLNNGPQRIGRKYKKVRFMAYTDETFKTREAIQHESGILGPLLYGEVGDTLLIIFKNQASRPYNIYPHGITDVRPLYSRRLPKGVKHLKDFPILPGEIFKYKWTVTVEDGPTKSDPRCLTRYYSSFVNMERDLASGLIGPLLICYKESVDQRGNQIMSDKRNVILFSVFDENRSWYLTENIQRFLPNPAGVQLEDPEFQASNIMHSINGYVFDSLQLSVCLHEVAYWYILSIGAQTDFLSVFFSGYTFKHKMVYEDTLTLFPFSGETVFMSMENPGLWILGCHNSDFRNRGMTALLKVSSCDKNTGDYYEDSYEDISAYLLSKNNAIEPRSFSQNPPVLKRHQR
# T1 sequence (P00451 1668-2351 limits assumed): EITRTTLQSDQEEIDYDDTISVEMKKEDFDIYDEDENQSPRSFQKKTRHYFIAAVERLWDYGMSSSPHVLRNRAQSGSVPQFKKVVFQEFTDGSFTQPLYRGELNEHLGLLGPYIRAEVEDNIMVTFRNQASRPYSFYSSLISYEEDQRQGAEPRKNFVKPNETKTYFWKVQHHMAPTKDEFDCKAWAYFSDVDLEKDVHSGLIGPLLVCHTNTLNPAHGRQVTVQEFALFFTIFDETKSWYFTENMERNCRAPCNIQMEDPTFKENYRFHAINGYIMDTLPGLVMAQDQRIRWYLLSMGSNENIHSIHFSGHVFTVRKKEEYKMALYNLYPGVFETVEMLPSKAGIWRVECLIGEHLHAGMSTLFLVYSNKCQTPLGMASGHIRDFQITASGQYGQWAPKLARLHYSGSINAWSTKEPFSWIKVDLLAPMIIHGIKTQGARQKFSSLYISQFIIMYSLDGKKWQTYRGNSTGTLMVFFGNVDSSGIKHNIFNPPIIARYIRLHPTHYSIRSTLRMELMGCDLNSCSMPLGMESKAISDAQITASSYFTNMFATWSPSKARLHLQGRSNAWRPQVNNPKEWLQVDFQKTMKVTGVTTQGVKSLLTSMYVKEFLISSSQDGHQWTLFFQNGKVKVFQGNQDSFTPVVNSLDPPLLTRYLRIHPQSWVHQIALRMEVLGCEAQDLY
# T1 sequence (Q61830 20-1456): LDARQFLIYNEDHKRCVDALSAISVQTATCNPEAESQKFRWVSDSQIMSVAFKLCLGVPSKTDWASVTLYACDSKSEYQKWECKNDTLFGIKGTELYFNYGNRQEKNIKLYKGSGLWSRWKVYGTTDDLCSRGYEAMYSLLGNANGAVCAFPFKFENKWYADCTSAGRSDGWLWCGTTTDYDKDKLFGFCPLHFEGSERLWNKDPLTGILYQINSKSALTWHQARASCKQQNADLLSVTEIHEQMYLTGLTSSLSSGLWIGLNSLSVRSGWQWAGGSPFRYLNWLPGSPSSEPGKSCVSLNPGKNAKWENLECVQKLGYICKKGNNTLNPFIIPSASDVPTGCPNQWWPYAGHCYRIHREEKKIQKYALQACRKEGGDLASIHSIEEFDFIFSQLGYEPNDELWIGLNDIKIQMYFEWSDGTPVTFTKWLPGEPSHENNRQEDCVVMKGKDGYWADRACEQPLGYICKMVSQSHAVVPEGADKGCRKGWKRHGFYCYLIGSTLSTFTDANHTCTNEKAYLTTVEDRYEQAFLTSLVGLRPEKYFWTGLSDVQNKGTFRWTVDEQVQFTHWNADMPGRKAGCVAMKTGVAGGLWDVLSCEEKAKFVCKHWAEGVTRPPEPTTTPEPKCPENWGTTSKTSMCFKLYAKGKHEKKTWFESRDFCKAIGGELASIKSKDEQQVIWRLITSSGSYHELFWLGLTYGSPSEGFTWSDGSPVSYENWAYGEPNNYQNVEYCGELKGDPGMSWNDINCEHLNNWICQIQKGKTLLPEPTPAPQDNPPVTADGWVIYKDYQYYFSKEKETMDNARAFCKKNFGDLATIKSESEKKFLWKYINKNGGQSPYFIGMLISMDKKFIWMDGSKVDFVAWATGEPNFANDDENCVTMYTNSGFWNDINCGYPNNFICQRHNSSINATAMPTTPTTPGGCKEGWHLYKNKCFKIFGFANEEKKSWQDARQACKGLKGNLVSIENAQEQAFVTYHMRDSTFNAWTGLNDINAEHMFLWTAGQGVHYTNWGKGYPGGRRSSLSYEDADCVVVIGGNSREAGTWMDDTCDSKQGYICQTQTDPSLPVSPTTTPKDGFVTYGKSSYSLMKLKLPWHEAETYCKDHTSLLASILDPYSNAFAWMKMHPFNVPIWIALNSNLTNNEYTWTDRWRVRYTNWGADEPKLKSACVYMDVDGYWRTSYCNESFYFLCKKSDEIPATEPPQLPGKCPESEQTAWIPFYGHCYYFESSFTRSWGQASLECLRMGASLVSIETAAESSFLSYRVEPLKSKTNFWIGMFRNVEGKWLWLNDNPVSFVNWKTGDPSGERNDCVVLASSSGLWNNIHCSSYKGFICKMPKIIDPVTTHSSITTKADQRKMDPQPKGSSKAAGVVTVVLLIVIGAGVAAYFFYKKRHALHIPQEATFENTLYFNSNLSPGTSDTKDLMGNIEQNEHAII
# Tests used:
# [1] = tested on: human DCs derived from monocytes; experiment: In vitro internalization of fluorescent ligands by human DCs derived from monocytes (flow cytometry); assay type: cell-based
# Protocol: DCs were prepared from monocytes as described previously (29) with a change in the culture media. Briefly, mononucleated cells were isolated from heparinized leukoplatelet layers (“buffy coats”) from healthy adult donors by adhesion on plastic cell culture dishes in RPMI 1640 medium supplemented with 10% human AB serum, glutamine and antibiotics for 60 minutes. Non-adhering cells were removed by 3 gentle washings with the medium. The adhering monocytes were cultured in X-VIVO 15 medium (Cambrex Bio Sciences, Paris, France) supplemented with 1% human AB serum and antibiotics and in the presence of 500 IU/ml of recombinant human interleukin-4 (rhIL-4), R&D Systems (Lille, France) and 1,000 IU/ml of recombinant human granulocyte macrophage colony-stimulating factor (rhGM-CSF), Immunotools (Friesoythe, Germany). Half of the medium, comprising all the supplements, was replaced every two days. After culture for 5 days, the non-adhering cells and those with little adhesion, corresponding to the fraction enriched in DC, were harvested, washed and used for subsequent experiments.
# Whole recombinant human FVIII (1,000 IU, Kogenate, Bayer) or B domain-deleted recombinant human FVIII (FVIII-BDD) (1,000 IU, Refacto, Wyeth) were solubilized in water and dialyzed against bicarbonate buffer (pH 9.2) containing CaCl2, 5 mM at 4° C., followed by coupling to fluorescein 5-isothiocyanate (isomer I, Sigma-Aldrich, Saint Quentin Fallavier, France) for 7-8 hours at 4° C. The labelled FVIII was then dialyzed against RPMI 1640 medium to remove non-coupled FITC. The FVIII-FITC was quantified by the Bradford method using bovine serum albumin as the standard.
# The DCs obtained in Example 1 (0.4×10^5 cells/well of a 96-well plate with 100 μl/well) were incubated with various doses (0.029, 0.057, 0.143 and 0.358 μM) of fluorescent conjugated ligands (FVIII-FITC, BDD-FVIII-FITC) obtained in Example 2 in X-VIVO medium for 0, 15, 60 and 120 min at 4° C. or at 37° C. After the incubation period, the cells were washed with cold PBS and analyzed by flow cytometry. To investigate the involvement of receptors in the internalization, the cells were preincubated for 30 min at 37° C. with […] and 1 mg/ml of mannan (Sigma-Aldrich, Saint Quentin Fallavier, France) before the addition of ligands conjugated to fluorescein. In addition to FVIII-FITC and FVIII-BDD-FITC, human α2-macroglobulin-MA (α2M) conjugated to FITC from Biomac (Leipzig, Germany), dextran-FITC (molecular weight 40,000) from Molecular Probes (Leiden, The Netherlands) and Lucifer yellow (LY-CH) from Sigma-Aldrich were used. The investigation of the internalization of FVIII was also carried out in the presence of 20 μg/ml of anti-mannose receptor monoclonal antibody (PAM-1, isotype IgG1) or anti-DC-SIGN monoclonal antibody ((AZN-D1, isotype IgG1) or mouse IgGλ,k conjugated to PE-Cy (BD Pharmingen, France). To investigate whether DC-SIGN is involved in the endocytosis of FVIII, the B lymphocyte line HD-420 transformed by wild-type EBV and transfected with DC-SIGN or not transfected was incubated with various concentrations of FVIII-FITC (0, 0.036, 0.072 and 0.143 μM) for 2 hours in RPMI 1640 medium supplemented with 10% FCS (foetal calf serum) and antibiotics. The analysis was carried out as for the DCs.
# [2] = tested on: D9E9 (T cell clone specific for FVIII); experiment: In vitro activation of FVIII-specific T cell clone D9E9 (IFN-gamma production); assay type: cell-based, human; conditions: antigen presented by DCs; IFNγ production; FIG. 4b
# Protocol: After washing, the DCs of Example 1 were resuspended in DMEM:F12 (1:1) medium containing 10% FCS and 10,000 DCs were introduced into each well of a 96-well cell culture plate with a round base. After incubation with mannan (1 mg/ml) in each well for 30 min, the DCs were cultured with 5,000 D9E9 (T cell clone specific for FVIII) in DMEM:F12 (1:1) medium containing 10% FCS and 20 U/ml of rhIL-2 with various doses of whole FVIII or FVIII-BDD (10, 8, 6, 4, 2 μg/ml) for 20 hours at 37° C. Like the D9E9 cells, the LE2E9 and BO2C11 lines of B cells transformed by EBV were cultured in the presence of 10 μg/ml of whole FVIII or FVIII-BDD. The control conditions were maintained in the absence of FVIII, D9E9 or DCs. As a negative control, hrFIX (Benefix, Baxter) was incubated with the cells at isomolar concentrations of FVIII. The supernatants were harvested at the end of the incubation period and tested for their production of IFNγ using the human IFN-γ Duo Set (DY285, R&D Systems) in accordance with the manufacturer's instructions.
# [3] = target: T1, binding of CTLD(4-7)-Fc to FVIII-BDD; experiment: ELISA: influence of VWF on binding of CTLD(4-7)-Fc to immobilized FVIII-BDD; conditions: soluble VWF in a VWF:FVIII ratio excess; FIG. 9
# Protocol: ELISA plates are coated with FVIII-BDD (5.56 μg/ml, 0.033 μM). VWF (0 to 1 μM) is incubated with 10 μg/ml of the construct CTLD(4-7)-Fc for 30 min at room temperature and added to immobilized FVIII-BDD.
# [4] = cells preincubated with 5 mM EDTA
molecule,measurement,setting,value
"O=C[C@H](O)[C@@H](O)[C@@H](O)[C@H](O)CO [D-galactose, reference compound]",reduction of internalization of FVIII,"[1]; D-galactose, independently of presence or absence of domain B",did not significantly reduce
"O=C(O)CN(CCN(CC(=O)O)CC(=O)O)CC(=O)O [EDTA, reference compound]",inhibition of internalization of FVIII-BDD by immature DCs,[1]; [4],62.4±11.4%
same,inhibition of internalization of whole FVIII by immature DCs,[1]; [4],58.1±11.1%
"FIX: hrFIX (Benefix, Baxter), negative control",activation of D9E9 cells,[2],absence of proliferation
"VWF: von Willebrand factor (Willefectin, LFB)",inhibition of interaction of CTLD(4-7)-Fc with immobilized FVIII,[3],43%
"RAP: receptor-associated protein of 38 kD, blocks endocytosis of ligands by LDL receptor family members such as CD91/LRP (protein, UniProt P30533 35-357, looked up) Alpha-2-macroglobulin …: YSREKNQPKPSPKRESGEEFRMEKLNQLWEKAQRLHLPPVRLAELHADLKIQERDELAWKKLKLDGLDEDGEKEARLIRNLNVILAKYGLDGKKDARQVTSNSLSGTQEDGLDDPRLEKLWHKAKTSGKFSGEELDKLWREFLHHKEKVHEYNVLLETLSRTEEIHENVISPSDLSDIKGSVLHSRHTELKEKLRSINQGLDRLRRVSHQGYSTEAEFEEPRVIDLWDLAQSANLTDKELEAFREELKHFEAKIEKHNHYQKQLEIAHEKLRHAESVGDGERVSRSREKHALLEGRTKELGYTVKKHLQDLSGRISRARHNEL",prevention of endocytosis of FVIII by the DCs,[1]; excess of RAP,did not allow the endocytosis of FVIII by the DCs to be prevented
same,inhibition of internalization of α2M,"[1]; excess of RAP or mannan, FIG. 2f",inhibited completely
